These are literature values, as cited in US20050277597A1, “Use of N-L-alpha-aspartyl-L-phenylalanine 1-methyl ester to treat sunburn and other burns” (Oklahoma Medical Research Foundation, priority 2004, published 2005).

Each structure is given as a SMILES string. Where a SMILES comes first, the peptide text is derived from it.

Take `COC(=O)[C@H](Cc1ccccc1)NC(=O)[C@@H](N)CC(=O)O` [aspartame, N-L-aspartyl-L-phenyalanine 1-methyl ester] (H-Asp-Phe-OMe): the “maximum solubility in water” value (pH 2.2, 25° C.) is 20 mg/mL. In addition, where the note is “pH 5.2 (pHi), 25° C.”, the “minimum solubility in water” value was 13.5 mg/mL.
